One block for each molecule: values may come before it.
Test system: 186277-243-T-J2-PDC complex spheroid growth
Experiment: Anticancer human tumor 186277-243-T-J2-PDC patient-derived colon adenocarcinoma cell line growth inhibition [AhR]
Settings: for IC50: curve of first compound; for viability, T/C: stronger effect = lower value
Summary of the method: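 Agents were dosed in half-log steps down from roughly clinical Cmax, or from 10 microM where Cmax was unknown, alone and with AhR antagonists. Read-out: percent test/control growth of tumor spheroids containing HUVEC and MSC stromal cells.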

[1] = second compound 0.1 µM, first compound 0.0316 µM
[2] = second compound 0.1 µM, first compound 0.1 µM
[3] = second compound 0.1 µM, first compound 0.316 µM
[4] = second compound 0.1 µM, first compound 1 µM
[5] = second compound 0.1 µM, first compound 3.16 µM
[6] = second compound 0.1 µM, first compound 10 µM
[7] = second compound 0.316 µM, first compound 0.0316 µM
[8] = second compound 0.316 µM, first compound 0.1 µM
[9] = second compound 0.316 µM, first compound 0.316 µM
[10] = second compound 0.316 µM, first compound 1 µM
[11] = second compound 0.316 µM, first compound 3.16 µM
[12] = second compound 0.316 µM, first compound 10 µM
[13] = second compound 1 µM, first compound 0.0316 µM
[14] = second compound 1 µM, first compound 0.1 µM
[15] = second compound 1 µM, first compound 0.316 µM
[16] = second compound 1 µM, first compound 1 µM
[17] = second compound 1 µM, first compound 3.16 µM
[18] = second compound 1 µM, first compound 10 µM
[19] = second compound 3.16 µM, first compound 0.0316 µM
[20] = second compound 3.16 µM, first compound 0.1 µM
[21] = second compound 3.16 µM, first compound 0.316 µM
[22] = second compound 3.16 µM, first compound 1 µM
[23] = second compound 3.16 µM, first compound 3.16 µM
[24] = second compound 3.16 µM, first compound 10 µM
[25] = second compound 10 µM, first compound 0.0316 µM
[26] = second compound 10 µM, first compound 0.1 µM
[27] = second compound 10 µM, first compound 0.316 µM
[28] = second compound 10 µM, first compound 1 µM
[29] = second compound 10 µM, first compound 3.16 µM
[30] = second compound 10 µM, first compound 10 µM
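Note: spheroids exposed to compounds for seven days before the viability read.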
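Throughout, for viability, T/C: luminescent signal used as a stand-in for viable cell amount; 100% = DMSO vehicle control wells.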

Compound: CC1(C)CCC(CN2CCN(c3ccc(C(=O)NS(=O)(=O)c4ccc(NCC5CCOCC5)c([N+](=O)[O-])c4)c(Oc4cnc5[nH]ccc5c4)c3)CC2)=C(c2ccc(Cl)cc2)C1 + CC(CO)NC(=O)c1cc(-c2ccc(Cl)cc2)nn(-c2cnn(C)c2)c1=O
- IC50 (second compound 0.1 µM): 5420 nM
- IC50 (second compound 0.316 µM): 5940 nM
- IC50 (second compound 1 µM): 5710 nM
- IC50 (second compound 3.16 µM): 5560 nM
- IC50 (second compound 10 µM): 4820 nM
- viability, T/C [1]: 99.3%
- viability, T/C [2]: 113%
- viability, T/C [3]: 102%
- viability, T/C [4]: 101%
- viability, T/C [5]: 84.8%
- viability, T/C [6]: 10.5%
- viability, T/C [7]: 108%
- viability, T/C [8]: 94.8%
- viability, T/C [9]: 96.7%
- viability, T/C [10]: 94.2%
- viability, T/C [11]: 96.2%
- viability, T/C [12]: 11.8%
- viability, T/C [13]: 112%
- viability, T/C [14]: 98.4%
- viability, T/C [15]: 109%
- viability, T/C [16]: 95.8%
- viability, T/C [17]: 92.1%
- viability, T/C [18]: 10.1%
- viability, T/C [19]: 95.2%
- viability, T/C [20]: 85.8%
- viability, T/C [21]: 83.1%
- viability, T/C [22]: 94.2%
- viability, T/C [23]: 88.1%
- viability, T/C [24]: 10.2%
- viability, T/C [25]: 77.5%
- viability, T/C [26]: 96.7%
- viability, T/C [27]: 83.9%
- viability, T/C [28]: 78.7%
- viability, T/C [29]: 74.4%
- viability, T/C [30]: 9.34%

Compound: COc1cc(Nc2ncc3c(n2)-c2ccc(Cl)cc2C(c2c(F)cccc2OC)=NC3)ccc1C(=O)O + CC(CO)NC(=O)c1cc(-c2ccc(Cl)cc2)nn(-c2cnn(C)c2)c1=O
- IC50 (second compound 0.1 µM): < 31.6 nM
- IC50 (second compound 0.316 µM): < 31.6 nM
- IC50 (second compound 1 µM): < 31.6 nM
- IC50 (second compound 3.16 µM): < 31.6 nM
- IC50 (second compound 10 µM): < 31.6 nM
- viability, T/C [1]: 27.6%
- viability, T/C [2]: 22.9%
- viability, T/C [3]: 21.5%
- viability, T/C [4]: 20.5%
- viability, T/C [5]: 22.3%
- viability, T/C [6]: 27.9%
- viability, T/C [7]: 26.1%
- viability, T/C [8]: 23.8%
- viability, T/C [9]: 22.4%
- viability, T/C [10]: 18.9%
- viability, T/C [11]: 22.7%
- viability, T/C [12]: 22.7%
- viability, T/C [13]: 30.3%
- viability, T/C [14]: 22%
- viability, T/C [15]: 21.9%
- viability, T/C [16]: 20.7%
- viability, T/C [17]: 22.2%
- viability, T/C [18]: 25%
- viability, T/C [19]: 26.1%
- viability, T/C [20]: 24.2%
- viability, T/C [21]: 20.7%
- viability, T/C [22]: 19.3%
- viability, T/C [23]: 23%
- viability, T/C [24]: 26%
- viability, T/C [25]: 23.6%
- viability, T/C [26]: 22.3%
- viability, T/C [27]: 21.5%
- viability, T/C [28]: 21.2%
- viability, T/C [29]: 23.4%
- viability, T/C [30]: 26.1%

Further lines, with some results ahead:

- IC50 (second compound 0.1 µM): > 3000 nM
- IC50 (second compound 0.316 µM): > 3000 nM
- IC50 (second compound 1 µM): > 3000 nM
- IC50 (second compound 3.16 µM): > 3000 nM
- IC50 (second compound 10 µM): > 3000 nM
Compound: CCN(c1cc(-c2ccc(CN3CCOCC3)cc2)cc(C(=O)NCc2c(C)cc(C)[nH]c2=O)c1C)C1CCOCC1 + CC(CO)NC(=O)c1cc(-c2ccc(Cl)cc2)nn(-c2cnn(C)c2)c1=O
- viability, T/C (second compound 0.1 µM, first compound 0.00949 µM): 97.8%
- viability, T/C (second compound 0.1 µM, first compound 0.03 µM): 106%
- viability, T/C (second compound 0.1 µM, first compound 0.0949 µM): 82.9%
- viability, T/C (second compound 0.1 µM, first compound 0.3 µM): 94.5%
- viability, T/C (second compound 0.1 µM, first compound 0.949 µM): 102%
- viability, T/C (second compound 0.1 µM, first compound 3 µM): 85.1%
- viability, T/C (second compound 0.316 µM, first compound 0.00949 µM): 109%
- viability, T/C (second compound 0.316 µM, first compound 0.03 µM): 95.8%
- viability, T/C (second compound 0.316 µM, first compound 0.0949 µM): 89.8%
- viability, T/C (second compound 0.316 µM, first compound 0.3 µM): 93.3%
- viability, T/C (second compound 0.316 µM, first compound 0.949 µM): 90.3%
- viability, T/C (second compound 0.316 µM, first compound 3 µM): 91.9%
- viability, T/C (second compound 1 µM, first compound 0.00949 µM): 83.5%
- viability, T/C (second compound 1 µM, first compound 0.03 µM): 90.5%
- viability, T/C (second compound 1 µM, first compound 0.0949 µM): 88.2%
- viability, T/C (second compound 1 µM, first compound 0.3 µM): 87.8%
- viability, T/C (second compound 1 µM, first compound 0.949 µM): 82.2%
- viability, T/C (second compound 1 µM, first compound 3 µM): 101%
- viability, T/C (second compound 3.16 µM, first compound 0.00949 µM): 96.5%
- viability, T/C (second compound 3.16 µM, first compound 0.03 µM): 101%
- viability, T/C (second compound 3.16 µM, first compound 0.0949 µM): 89.4%
- viability, T/C (second compound 3.16 µM, first compound 0.3 µM): 80.7%
- viability, T/C (second compound 3.16 µM, first compound 0.949 µM): 92.3%
- viability, T/C (second compound 3.16 µM, first compound 3 µM): 85.8%
- viability, T/C (second compound 10 µM, first compound 0.00949 µM): 88.5%
- viability, T/C (second compound 10 µM, first compound 0.03 µM): 69.8%
- viability, T/C (second compound 10 µM, first compound 0.0949 µM): 80.5%
- viability, T/C (second compound 10 µM, first compound 0.3 µM): 87.4%
- viability, T/C (second compound 10 µM, first compound 0.949 µM): 73.5%
- viability, T/C (second compound 10 µM, first compound 3 µM): 82.6%

- IC50 (second compound 0.1 µM): > 100 nM
- IC50 (second compound 0.316 µM): > 100 nM
- IC50 (second compound 1 µM): > 100 nM
- IC50 (second compound 3.16 µM): > 100 nM
- IC50 (second compound 10 µM): > 100 nM
Compound: Cn1ncnc1C1c2n[nH]c(=O)c3cc(F)cc(c23)NC1c1ccc(F)cc1 (stereo not given) + CC(CO)NC(=O)c1cc(-c2ccc(Cl)cc2)nn(-c2cnn(C)c2)c1=O
- viability, T/C (second compound 0.1 µM, first compound 0.000316 µM): 103%
- viability, T/C (second compound 0.1 µM, first compound 0.001 µM): 99.3%
- viability, T/C (second compound 0.1 µM, first compound 0.00316 µM): 102%
- viability, T/C (second compound 0.1 µM, first compound 0.01 µM): 93.5%
- viability, T/C [1]: 89.4%
- viability, T/C [2]: 63.8%
- viability, T/C (second compound 0.316 µM, first compound 0.000316 µM): 111%
- viability, T/C (second compound 0.316 µM, first compound 0.001 µM): 106%
- viability, T/C (second compound 0.316 µM, first compound 0.00316 µM): 93.1%
- viability, T/C (second compound 0.316 µM, first compound 0.01 µM): 96.9%
- viability, T/C [7]: 83%
- viability, T/C [8]: 64.5%
- viability, T/C (second compound 1 µM, first compound 0.000316 µM): 102%
- viability, T/C (second compound 1 µM, first compound 0.001 µM): 108%
- viability, T/C (second compound 1 µM, first compound 0.00316 µM): 118%
- viability, T/C (second compound 1 µM, first compound 0.01 µM): 94.6%
- viability, T/C [13]: 79.4%
- viability, T/C [14]: 69.3%
- viability, T/C (second compound 3.16 µM, first compound 0.000316 µM): 92.7%
- viability, T/C (second compound 3.16 µM, first compound 0.001 µM): 109%
- viability, T/C (second compound 3.16 µM, first compound 0.00316 µM): 94.7%
- viability, T/C (second compound 3.16 µM, first compound 0.01 µM): 86.4%
- viability, T/C [19]: 76.5%
- viability, T/C [20]: 67.7%
- viability, T/C (second compound 10 µM, first compound 0.000316 µM): 87%
- viability, T/C (second compound 10 µM, first compound 0.001 µM): 98.1%
- viability, T/C (second compound 10 µM, first compound 0.00316 µM): 84.5%
- viability, T/C (second compound 10 µM, first compound 0.01 µM): 72.3%
- viability, T/C [25]: 61.9%
- viability, T/C [26]: 56%

- IC50 (second compound 0.1 µM): 205 nM
- IC50 (second compound 0.316 µM): 193 nM
- IC50 (second compound 1 µM): 150 nM
- IC50 (second compound 3.16 µM): 139 nM
- IC50 (second compound 10 µM): 110 nM
Compound: NS(=O)(=O)OCC1CC(n2ccc3c(NC4CCc5ccccc54)ncnc32)CC1O (stereo not given) + CC(CO)NC(=O)c1cc(-c2ccc(Cl)cc2)nn(-c2cnn(C)c2)c1=O
- viability, T/C [1]: 102%
- viability, T/C [2]: 76.7%
- viability, T/C [3]: 33.5%
- viability, T/C [4]: 11%
- viability, T/C [5]: 4.62%
- viability, T/C [6]: 1.34%
- viability, T/C [7]: 91.8%
- viability, T/C [8]: 76.7%
- viability, T/C [9]: 29.4%
- viability, T/C [10]: 10.7%
- viability, T/C [11]: 3.18%
- viability, T/C [12]: 0.98%
- viability, T/C [13]: 89.9%
- viability, T/C [14]: 65.1%
- viability, T/C [15]: 22.1%
- viability, T/C [16]: 8.96%
- viability, T/C [17]: 3.1%
- viability, T/C [18]: 1.27%
- viability, T/C [19]: 78.3%
- viability, T/C [20]: 61.1%
- viability, T/C [21]: 22.9%
- viability, T/C [22]: 7.89%
- viability, T/C [23]: 2.24%
- viability, T/C [24]: 1.06%
- viability, T/C [25]: 63.5%
- viability, T/C [26]: 53.2%
- viability, T/C [27]: 22%
- viability, T/C [28]: 8.3%
- viability, T/C [29]: 2.58%
- viability, T/C [30]: 1.14%

Reference: PubChem BioAssay AID1918991 (Molecular Pharmacology Branch, DTP, NCI, 2023)
